The values below come from patent US20250049812A1, “Compounds that Inhibit Necroptosis and Their Preparation Methods” (SHANGHAI INSTITUTE OF ORGANIC CHEMISTRY, CHINESE ACADEMY OF …, priority 2021, published 2025).

Molecules are shown by their SMILES.

This assay concerns Jurkat FADD (−/−) Cells. As to the kind of experiment: TNF-α induced necroptosis of Jurkat FADD-deficient cells (CellTiter-Glo cell survival). Conditions: Homo sapiens; TNF-α induced necroptosis, Jurkat FADD-deficient cells, 13 hours, CellTiter-Glo; read-out: IC50. Type of assay: cell-based, human. As for the experimental part:
1. Cell Activity Testing System (TNF-α Induces the Necroptosis of Jurkat Cells, the Human Leukemia Cells Deficient in FADD).
(1) Cell culture: Jurkat FADD-deficient cells were cultured in an RPMI 1640 medium with 10% fetal bovine serum (FBS), 100 U/mL penicillin, and 100 […]. The cells were cultured in a cell culture incubator at 37° C. with 5% CO2. And all the cells were cryopreserved in a complete medium containing 5-10% DMSO. Medium change and passage were performed 3-4 times per week.
(4) Experimental scheme: The system of TNF-α inducing the necroptosis of Jurkat FADD-deficient cells was used to screen for compounds with RIPKl kinase inhibitory activity.
Jurkat FADD-deficient cells were evenly inoculated into a 384-well plate with each well added with a 40 μL complete culture medium, followed by the addition of 5 μL of the under-testing compound to each well. The initial concentration of the compounds was set at 25 μM (for some compounds with higher activity, the initial concentration was set at 0.5 μM), with a three-fold gradient dilution, totaling 12 gradient points. Three replicate wells were set for each compound. In addition, there was a blank control group and a control group with TNFα stimulation only. After the compound was added, the mixture needed to be centrifuged and incubated in a cell culture incubator at 37° C. containing 5% CO2 for 1 hour. After that, 5 μL of 5 ng/mL TNFα was added to stimulate the occurrence of necroptosis. After centrifugation and mixing, the mixture was placed in the cell culture incubator for 13 hours (until the cell death rate reaches 65% in the group with only TNF-α), with a total volume of 50 μL per well. Then, the steps below were followed to test the cell survival rate.
The CellTiter-Glo® Buffer was removed from the reagent kit, equilibrated to room temperature, and used to dissolve the CellTiter-Glo® Substrate. The CellTiter-Glo® Reagent obtained could be directly used for the experiment.
15 μL of CellTiter-Glo® Reagent which has been equilibrated to room temperature was added to each well, and incubated in the dark for 15 minutes. After that, a microplate reader (Enspire Multimode Plate Reader of PerkinElmer, USA) was used to measure the chemiluminescence.
In the case of `CN1C(=O)C(NC(=O)c2nnc(Cc3ccccc3)[nH]2)Cn2ccc3cccc1c32` (racemic) [T-1, (±)-5-benzyl-N-(1-methyl-2-oxy-1,2,3,4-tetrahydro-[1,4]diazepino [3,2,1-hi]indol-3-yl)-4H-1,2,4-triazole-3-carboxamide], the IC50 (usually the concentration needed to halve the response being measured) is below 0.01 µM.
Consider `CN1C(=O)C(NC(=O)c2ncc(Cc3ccccc3)o2)Cn2ccc3cccc1c32` (racemic) [T-2, (±)-5-benzyl-N-(1-methyl-2-oxy-1,2,3,4-tetrahydro-[1,4]diazepino [3,2,1-hi]indol-3-yl) oxazole-2-carboxamide], for which the IC50 was below 0.01 µM.
Consider `CN1C(=O)C(NC(=O)c2nnc(Cc3ccccc3)[nH]2)Cn2cc(I)c3cccc1c32` (racemic) [T-3, (±)-5-benzyl-N-(7-iodo-1-methyl-2-oxo-1,2,3,4-tetrahydro-[1,4]diazepino [3,2,1-hi]indol-3-yl)-4H-1,2,4-triazole-3-carboxamide], for which the IC50 lay within 0.01 to 0.1 µM.
`CSc1cn2c3c(cccc13)N(C)C(=O)C(NC(=O)c1nnc(Cc3ccccc3)[nH]1)C2` (racemic) [T-4, (±)-5-benzyl-N-(1-methyl-7-(methylthio)-2-carbonyl-1,2,3,4-tetrahydro-[1,4]diazepino [3,2,1-hi]indol-3-yl)-4H-1,2,4-triazole-3-carboxamide]: the IC50 lay in the range of 0.01 to 0.1 µM.
The value for `CN1C(=O)C(NC(=O)c2nnc(Cc3ccccc3)[nH]2)Cn2ccc3cc(Cl)cc1c32` (racemic) [T-5, (±)-5-benzyl-N-(9-chloro-1-methyl-2-oxo-1,2,3,4-tetrahydro-[1,4]diazepino [3,2,1-hi]indol-3-yl)-4H-1,2,4-triazole-3-carboxamide] was 0.1 to 1 µM; that for `CN1C(=O)C(NC(=O)c2nnc(Cc3ccccc3)[nH]2)Cn2ccc3cc(Br)cc1c32` (racemic) [T-6, (±)-5-benzyl-N-(9-bromo-1-methyl-2-oxo-1,2,3,4-tetrahydro-[1,4]diazepino [3,2,1-hi]indol-3-yl)-4H-1,2,4-triazole-3-carboxamide] was 0.1 to 1 µM; that for `CN1C(=O)C(NC(=O)c2nnc(Cc3ccccc3)[nH]2)Cn2ccc3cc(F)cc1c32` (racemic) [T-7, (±)-5-benzyl-N-(9-fluoro-1-methyl-2-oxo-1,2,3,4-tetrahydro-[1,4]diazepino [3,2,1-hi]indol-3-yl)-4H-1,2,4-triazole-3-carboxamide] was 0.01 to 0.1 µM.
Regarding `CN1C(=O)C(NC(=O)c2nnc(Cc3ccccc3)[nH]2)Cn2cc(C#Cc3cnn(C)c3)c3cccc1c32` (racemic) [T-8, (±)-5-benzyl-N-(1-methyl-7-((1-methyl-1H-pyrazol-4-yl)ethynyl)-2-oxy-1,2,3,4-tetrahydro-[1,4]diazepino [3,2,1-hi]indol-3-yl)-4H-1,2,4-triazole-3-carboxamide], the IC50 was below 0.01 µM.
Consider `CN1C(=O)C(NC(=O)c2nnc(Cc3ccccc3)[nH]2)Cn2ccc3cc(C#Cc4cnn(C)c4)cc1c32` (racemic) [T-9, (±)-5-benzyl-N-(1-methyl-9-((1-methyl-1H-pyrazol-4-yl)ethynyl)-2-oxy-1,2,3,4-tetrahydro-[1,4]diazepino [3,2,1-hi]indol-3-yl)-4H-1,2,4-triazole-3-carboxamide], for which the IC50 is below 0.01 µM.
Regarding `CCN1C(=O)C(NC(=O)c2nnc(Cc3ccccc3)[nH]2)Cn2ccc3cccc1c32` (racemic) [T-10, (±)-5-benzyl-N-(1-ethyl-2-oxy-1,2,3,4-tetrahydro-[1,4]diazepino [3,2,1-hi]indol-3-yl)-4H-1,2,4-triazole-3-carboxamide], the half-maximal inhibitory concentration (IC50) was 0.01 to 0.1 µM.
As for `CN1C(=O)C(NC(=O)c2nnc(Cc3ccccc3)[nH]2)Cn2cc(Br)c3cccc1c32` (racemic) [T-11, (±)-5-benzyl-N-(7-bromo-1-methyl-2-oxo-1,2,3,4-tetrahydro-[1,4]diazepino [3,2,1-hi]indol-3-yl)-4H-1,2,4-triazole-3-carboxamide], the IC50 lay in the range of 0.01 to 0.1 µM.
For `CCOC(=O)c1cc2cccc3c2n1CC(NC(=O)c1nnc(Cc2ccccc2)[nH]1)C(=O)N3C` (racemic) [T-12, (±)-3-(5-benzyl-4H-1,2,4-triazole-3-carboxamido)-1-methyl-2-oxy-1,2,3,4-tetrahydro-[1,4] diazepino [3,2,1-hi] indole-6-carboxylate], the IC50 was in the range of 0.1 to 1 µM.
As to `CN1C(=O)C(NC(=O)c2nnc(Cc3ccccc3)[nH]2)Cn2c(C(=O)O)cc3cccc1c32` (racemic) [T-13, (±)-3-(5-benzyl-4H-1,2,4-triazole-3-carboxamido)-1-methyl-2-oxy-1,2,3,4-tetrahydro-[1,4] diazepino [3,2,1-hi] indole-6-carboxylic Acid], the IC50 is above 1 µM.
The value for `CN1C(=O)C(NC(=O)c2nnc(Cc3ccccc3)[nH]2)CN2CCc3cccc1c32` (racemic) [T-14, (±)-5-benzyl-N-(1-methyl-2-oxo-1,2,3,4,6,7-hexahydro-[1,4]diazepino [3,2,1-hi]indol-3-yl)-4H-1,2,4-triazole-3-carboxamide] was 0.01 to 0.1 µM; that for `CN1C(=O)C(NC(=O)c2nnc(Cc3ccccc3)[nH]2)Cn2cc(-c3cnn(C)c3)c3cccc1c32` (racemic) [T-15, (±)-5-benzyl-N-(1-methyl-7-(1-methyl-1H-pyrazol-4-yl)-2-oxy-1,2,3,4-tetrahydro-[1,4]diazepino [3,2,1-hi]indol-3-yl)-4H-1,2,4-triazole-3-carboxamide] was below 0.01 µM.
As for `CN1C(=O)C(NC(=O)c2nnc(Cc3ccccc3)[nH]2)Cn2cc(-c3cccnc3)c3cccc1c32` (racemic) [T-17, (±)-5-benzyl-N-(1-methyl-2-oxo-7-(pyridin-3-yl)-1,2,3,4-tetrahydro-[1,4]diazepino [3,2,1-hi]indol-3-yl)-4H-1,2,4-triazole-3-carboxamide], the IC50 lay in the range of 0.01 to 0.1 µM.
In the case of `CN1C(=O)C(NC(=O)c2nnc(Cc3ccccc3)[nH]2)Cn2cc(-c3cc(C(F)(F)F)nn3C)c3cccc1c32` (racemic) [T-18, (±)-5-benzyl-N-(1-methyl-7-(1-methyl-3-(trifluoromethyl)-1H-pyrazol-5-yl)-2-oxo-1,2,3,4-tetrahydro-[1,4]diazepino [3,2,1-hi]indol-3-yl)-4H-1,2,4-triazole-3-carboxamide], the IC50 was below 0.01 µM.
The value for `CN1C(=O)C(NC(=O)c2nnc(Cc3ccccc3)[nH]2)Cc2c[nH]c3cccc1c23` (racemic) [T-19, (±)-5-benzyl-N-(1-methyl-2-oxo-2,3,4,6-tetrahydro-1H-azacyclo [4,3,2-cd]indol-3-yl)-4H-1,2,4-triazole-3-carboxamide] was below 0.01 µM.
The value for `CN1C(=O)C(NC(=O)c2nnc(Cc3ccccc3)[nH]2)Cc2cn(C)c3cccc1c23` (racemic) [T-20, (±)-5-benzyl-N-(1,6-dimethyl-2-oxo-2,3,4,6-tetrahydro-1H-azacyclo [4,3,2-cd]indol-3-yl)-4H-1,2,4-triazole-3-carboxamide] was 0.01 to 0.1 µM.
The value for `CN1C(=O)C(NC(=O)c2nnc(Cc3ccccc3)[nH]2)Cc2cn(S(=O)(=O)c3ccccc3)c3cccc1c23` (racemic) [T-21, (±)-5-benzyl-N-(1-methyl-2-oxo-6-(benzenesulfonyl)-2,3,4,6-tetrahydro-1H-aza [4,3,2-cd]indol-3-yl)-4H-1,2,4-triazole-3-carboxamide] was 0.1 to 1 µM; that for `CN1C(=O)C(NC(=O)c2nnc(Cc3ccccc3)[nH]2)Cc2cn(CC3CC3)c3cccc1c23` (racemic) [T-22, (±)-5-benzyl-N-(6-(cyclopropylmethyl)-1-methyl-2-oxo-2,3,4,6-tetrahydro-1H-azacyclo [4,3,2-cd]indol-3-yl)-4H-1,2,4-triazole-3-carboxamide] was 0.01 to 0.1 µM.
